From US20230110491A1, “LUCIFERASE-BASED METHODS FOR DETECTING BACTERIAL AND FUNGAL CELLS AND ASSESSING SUSCEPTIBILITY OF BACTERIAL CELLS TO ANTIBIOTICS” (Biosynth AG, priority 2020, published 2023)
In brackets after ≈: the same amount, converted by molar mass. Each block holds one molecule with its values, some of them ahead of it.

Key:
[1] = system: Salmonella enteritidis RKI 05/07992; test: Coupled enzyme assay using pro-luciferins on solid nutrient agar with luciferase and ATP; format: cell-based; conditions: solid nutrient agar with luciferase, pro-luciferin and 1 mM ATP; approx. 10 CFU/well; 37° C.
Protocol: (§1) Nutrient agar pH 7.4 (5 g/I peptone, 5 g/I NaCl, 2 g/I yeast extract, 1 g/I meat extract, 15 g/I agar) was autoclaved and cooled to 50° C. […] Next, 40 μM D-luciferin (Biosynth AG) was added from a concentrated stock solution.
(§2) Actively growing cultures (Nutrient Broth, 37° C., OD600 0.08 to 0.33) of Staphylococcus aureus ATCC 29213 and Salmonella enteritidis RKI 05/07992 were then diluted to […] in sterile PBS and inoculated to microplate wells with agar (1 μl per well=approx. 10 CFU/well). 1 μl sterile phosphate buffered saline (PBS) was added to sterile control wells. The surrounding wells were filled with sterile water and the plate was incubated at 37° C. in a luminescence microplate reader. The luminescence was measured every 10 min (kinetic mode).
(§3) (Biosynth AG) and 1 mM ATP.

[2] = system: Staphylococcus aureus ATCC 29213; test: as above; format: cell-based; conditions: solid nutrient agar with luciferase, pro-luciferin and 1 mM ATP; approx. 10 CFU/well; 37° C.
Protocol: as §1, §2, §3

[3] = system: Ampicillin sensitive (AMP^S) E. coli ATCC 25922; test: Optical density (600 nm) after 15 h incubation with ampicillin; format: cell-based, Escherichia coli
Protocol: (§4) Ampicillin was added from a dilution series of a filter-sterilized, concentrated stock solution prepared in sterile ultrapure water (5 μl per well). Sterile water was added to control wells without antibiotic. Wells were inoculated with 5 μl of cell suspensions (OD 0.1, prepared in sterile PBS from agar plate pre-cultures) of either Ampicillin resistant (AMP^R) E. coli RKI 66/09 (AmpC) or Ampicillin sensitive (AMP^S) E. coli ATCC 25922. Initial cell concentration in wells was approximately 2.5×10^6 CFU/ml. The microplate was incubated at 37° C. in a luminescence microplate reader and relative luminescence units (RLU) were measured every 2 min for 8 h. For comparison, optical density (600 nm) was measured for all wells after 15 h incubation at 37° C.

[4] = system: Ampicillin resistant (AMP^R) E. coli RKI 66/09 (AmpC); test: as above; format: cell-based, Escherichia coli; conditions: all tested ampicillin concentrations
Protocol: as §4

[5] = system: Ampicillin sensitive (AMP^S) E. coli ATCC 25922; test: ATP assay for antibiotic susceptibility testing (luminescence, ATP release); format: cell-based, Escherichia coli
Protocol: (§5) Nutrient broth pH 7.4 (5 g/I peptone, 5 g/I NaCl, 2 g/I yeast extract, 1 g/I meat extract) was autoclaved and cooled to room temperature. […] Next, 0.4 mM D-luciferin (Biosynth AG) and 1 mM MgCl2 was added from concentrated stock solutions. The prepared broth was sterilized by filtration (0.2 μm), incubated for 2.5 h at 30° C. in order to burn-off background and then added to a white microplate (0.198 ml per well).
as §4

[6] = system: Ampicillin resistant (AMP^R) E. coli RKI 66/09 (AmpC); test: as above; format: cell-based, Escherichia coli
Protocol: as §5, §4

Structure (SMILES): CCCCCCCC(=O)Oc1ccc(COc2ccc3nc(C4=N[C@@H](C(=O)O)CS4)sc3c2)cc1 [D-luciferin-spacer-caprylate]
incubation time after which luminescence begins to strongly increase [1]: about 10 hours | incubation time after which luminescence increases [2]: about 17 hours

MIC ([3]; Escherichia coli, ATCC25922, OD 600 nm, 15 h, 37° C., read-out: MIC from optical density after 15 h): ~6 µg/mL (≈ 17.2 µM)
Structure (SMILES): CC1(C)S[C@@H]2[C@H](NC(=O)[C@H](N)c3ccccc3)C(=O)N2[C@H]1C(=O)O [ampicillin]
cell growth (optical density after 15 h) ([3]; 10-100 μg/ml ampicillin): lack of cell growth | growth inhibition (optical density after 15 h) [4]: no growth inhibition | ATP release at non-inhibitory concentration ([5]; 1.56 μg/ml ampicillin): very high amounts of ATP are released | time after which ATP increase can be detected ([5]; at inhibitory antibiotic concentrations, cell concentrations as low as 2×10^6 CFU/ml): 30 min | ATP release compared to the control without antibiotic ([5]; at the MIC or above (6.25, 25, 100 μg/ml)): occurs earlier and is increased | dependency of onset time on ampicillin concentration ([5]; onset time = first time point with RLU above 1200): inversely correlates with ampicillin concentration | time course of ATP release ([6]; 1.56-100 μg/ml ampicillin): independent of ampicillin concentration | dependency of onset time on ampicillin concentration ([6]; onset time = first time point with RLU above 1200, all tested concentrations): essentially the same onset time
